This note sets out measurements from ChEMBL document CHEMBL5726462, “Substituted quinolines as modulators of sodium channels” (2017).

Broadly, the IC50 is the point on the concentration scale where inhibition reaches its midpoint.

This experiment in a line: Electrophysiology Assays: Patch clamp electrophysiology was used to assess the efficacy and selectivity of sodium channel blockers in dorsal root ganglion neurons. Rat neurons were isolated from the dorsal root ganglions and maintained in culture for 2 to 10 days in the presence of NGF (50 ng/ml) (culture media consisted of NeurobasalA supplemented with B27, glutamine and antibiotics). Small diameter neurons (nociceptors, 8-12 μm in diameter) were visually identified and probed with fine tip glass electrodes connected to an amplifier (Axon Instruments). The voltage clamp mode was used to assess the compound's IC50 holding the cells at −60 mV. In addition, the current clamp mode was employed to test the efficacy of the compounds in blocking action potential generation in response to current injections. The results of these experiments contributed to the definition of the efficacy profile of the compounds. A general note: In patch-clamp work, channel activity is measured electrically.
As for `COc1cc(F)ccc1Oc1nc2ccccc2nc1C(=O)Nc1nnn[nH]1`, the IC50 was 2200 nM.
The result for `O=C(O)c1ccc(NC(=O)c2cc3ccccc3nc2Oc2ccccc2OC(F)F)cc1` reads 975 nM; that for `O=C(O)c1ccc(NC(=O)c2cc3ccccc3nc2Oc2ccc(F)cc2Cl)cn1`, 96 nM; that for `COc1ccc(Oc2nc3ccccc3cc2C(=O)Nc2ccc(C(=O)O)cc2)c(OC)c1`, 550 nM.
The result for `Cc1cc(F)ccc1Oc1nc2ccccc2cc1C(=O)Nc1ccc(C(=O)O)cc1` reads 315 nM.
As to `O=C(O)c1ccc(NC(=O)c2cc3ccccc3nc2Oc2ccc(F)cc2F)cc1`, the concentration for half-maximal inhibition (IC50) came to 275 nM.
For the molecule `O=C(O)c1ccc(NC(=O)c2cc3ccccc3nc2Oc2ccc(F)cc2F)cn1`, the concentration for half-maximal inhibition (IC50) came out at 255 nM.
The result for `NS(=O)(=O)c1cccc(NC(=O)c2cc3ccccc3nc2Oc2ccccc2OC(F)F)c1` reads 24 nM.
